Our source for the activity coefficient values is the NIST ThermoML archive (doi:10.1021/je300692s).

This series is described as follows: activity coefficient (dimensionless); of the first substance listed, at infinite dilution; xn = mol fraction of the nth substance listed. As to conditions: 101 kPa, Liquid, Chromatography, x1 = 0.

Numbers after ± are expanded uncertainties.

As to `CCC(C)CC` [3-methylpentane] + CCCCCCCCCC[N+]1(C)CCCC1.O=S(=O)([N-]S(=O)(=O)C(F)(F)F)C(F)(F)F, the activity coefficient runs as follows: (322.6 K) 3.65 ± 0.38; (332.5 K) 3.36 ± 0.35; (342.8 K) 3.4 ± 0.36.
On to `CCCCCCCC` [octane] + CCCCCC[N+]1(C)CCCC1.O=S(=O)([N-]S(=O)(=O)C(F)(F)F)C(F)(F)F, for which the activity coefficient by setting is: (322.9 K) 14.2 ± 1.5; (333 K) 13.4 ± 1.4; (343.1 K) 12.9 ± 1.4.
Take `CCc1ccccc1` [ethylbenzene] + CCCCCCCCCC[N+]1(C)CCCC1.O=S(=O)([N-]S(=O)(=O)C(F)(F)F)C(F)(F)F: the activity coefficient runs as follows: (322.6 K) 1.01 ± 0.05; (332.5 K) 1.04 ± 0.06; (342.8 K) 1.06 ± 0.06.
The corresponding values for `CCCCCCCC` [octane] + CCCCCCCCCC[N+]1(C)CCCC1.O=S(=O)([N-]S(=O)(=O)C(F)(F)F)C(F)(F)F are 6.13 ± 0.64, 5.92 ± 0.62 and 5.76 ± 0.61.
Take `CCc1ccccc1` [ethylbenzene] + CCCCCCCC[N+]1(C)CCCC1.O=S(=O)([N-]S(=O)(=O)C(F)(F)F)C(F)(F)F: the activity coefficient reads like this: (323 K) 1.03 ± 0.1; (333 K) 0.98 ± 0.1; (343.1 K) 1.04 ± 0.11.
The corresponding values for `C1CCCCCC1` [cycloheptane] + CCCCCCCC[N+]1(C)CCCC1.O=S(=O)([N-]S(=O)(=O)C(F)(F)F)C(F)(F)F are 8.62 ± 0.91, 12.1 ± 1.3 and 15.4 ± 1.6.
Consider `C1CCCCC1` [cyclohexane] + CCCCCC[N+]1(C)CCCC1.O=S(=O)([N-]S(=O)(=O)C(F)(F)F)C(F)(F)F, for which the activity coefficient is, setting by setting: (322.9 K) 5.16 ± 0.54; (333 K) 4.64 ± 0.49; (343.1 K) 4.67 ± 0.49.
`c1ccccc1` [benzene] + CCCCCCCCCC[N+]1(C)CCCC1.O=S(=O)([N-]S(=O)(=O)C(F)(F)F)C(F)(F)F: the activity coefficient (322.6 K) is 0.62 ± 0.07, the activity coefficient (332.5 K) was 0.63 ± 0.07 and the activity coefficient (342.8 K) was 0.64 ± 0.07.
For `CCO` [ethanol] + CCCCCCCCCC[N+]1(C)CCCC1.O=S(=O)([N-]S(=O)(=O)C(F)(F)F)C(F)(F)F the same measures were 1.46 ± 0.15, 1.34 ± 0.14 and 1.22 ± 0.13.
On to `CCC[N+](=O)[O-]` [1-nitropropane] + CCCCCCCC[N+]1(C)CCCC1.O=S(=O)([N-]S(=O)(=O)C(F)(F)F)C(F)(F)F, for which the activity coefficient runs as follows: (323 K) 0.55 ± 0.06; (333 K) 0.52 ± 0.06; (343.1 K) 0.51 ± 0.06.
On to `Cc1cccc(C)c1` [1,3-dimethylbenzene] + CCCCCCCCCC[N+]1(C)CCCC1.O=S(=O)([N-]S(=O)(=O)C(F)(F)F)C(F)(F)F, for which the activity coefficient is, setting by setting: (322.6 K) 0.99 ± 0.1; (332.5 K) 1 ± 0.1; (342.8 K) 1.03 ± 0.1.
For `Cc1ccccc1C` [1,2-dimethylbenzene] + CCCCCCCCCC[N+]1(C)CCCC1.O=S(=O)([N-]S(=O)(=O)C(F)(F)F)C(F)(F)F the same measures were 0.92 ± 0.09, 0.94 ± 0.1 and 0.96 ± 0.1.
Take `CCCCCCC` [heptane] + CCCCCC[N+]1(C)CCCC1.O=S(=O)([N-]S(=O)(=O)C(F)(F)F)C(F)(F)F: the activity coefficient by setting is: (322.9 K) 10.6 ± 1.1; (333 K) 9.43 ± 0.99; (343.1 K) 9.58 ± 1.
As to `CC(C)OC(C)C` [diisopropyl ether] + CCCCCCCCCC[N+]1(C)CCCC1.O=S(=O)([N-]S(=O)(=O)C(F)(F)F)C(F)(F)F, the activity coefficient by setting is: (322.6 K) 2.29 ± 0.24; (332.5 K) 2.28 ± 0.24; (342.8 K) 2.26 ± 0.24.
With `CCO` [ethanol] + CCCCCC[N+]1(C)CCCC1.O=S(=O)([N-]S(=O)(=O)C(F)(F)F)C(F)(F)F, the activity coefficient (322.9 K) was 1.41 ± 0.15, the activity coefficient (333 K) was determined as 1.4 ± 0.14 and the activity coefficient (343.1 K) worked out at 1.31 ± 0.13.
The corresponding values for `c1ccccc1` [benzene] + CCCCCC[N+]1(C)CCCC1.O=S(=O)([N-]S(=O)(=O)C(F)(F)F)C(F)(F)F are 0.76 ± 0.08, 0.77 ± 0.08 and 0.78 ± 0.08.
For `Cc1ccc(C)cc1` [1,4-dimethylbenzene] + CCCCCC[N+]1(C)CCCC1.O=S(=O)([N-]S(=O)(=O)C(F)(F)F)C(F)(F)F the same measures were 1.35 ± 0.14, 1.4 ± 0.14 and 1.42 ± 0.15.
With `CCC[N+](=O)[O-]` [1-nitropropane] + CCCCCC[N+]1(C)CCCC1.O=S(=O)([N-]S(=O)(=O)C(F)(F)F)C(F)(F)F, the activity coefficient came to 0.66 ± 0.07 (322.9 K), 0.66 ± 0.07 (333 K) and 0.65 ± 0.07 (343.1 K).
Consider `C#CCCCCC` [1-heptyne] + CCCCCC[N+]1(C)CCCC1.O=S(=O)([N-]S(=O)(=O)C(F)(F)F)C(F)(F)F, for which the activity coefficient runs as follows: (322.9 K) 2.24 ± 0.24; (333 K) 2.79 ± 0.29; (343.1 K) 2.78 ± 0.29.
`C1CCCCCC1` [cycloheptane] + CCCCCCCCCC[N+]1(C)CCCC1.O=S(=O)([N-]S(=O)(=O)C(F)(F)F)C(F)(F)F: the activity coefficient (322.6 K) was found to be 7 ± 0.74, the activity coefficient (332.5 K) worked out at 9.72 ± 1 and the activity coefficient (342.8 K) stood at 13.3 ± 1.4.
For `ClC(Cl)(Cl)Cl` [tetrachloromethane] + CCCCCCCCCC[N+]1(C)CCCC1.O=S(=O)([N-]S(=O)(=O)C(F)(F)F)C(F)(F)F the same measures were 1.32 ± 0.14, 1.12 ± 0.11 and 1.31 ± 0.13.
For the compound `ClC(Cl)(Cl)Cl` [tetrachloromethane] + CCCCCCCC[N+]1(C)CCCC1.O=S(=O)([N-]S(=O)(=O)C(F)(F)F)C(F)(F)F, the activity coefficient worked out at 1.39 ± 0.14 (323 K), 1.3 ± 0.13 (333 K) and 1.15 ± 0.12 (343.1 K).
`ClC(Cl)(Cl)Cl` [tetrachloromethane] + CCCCCC[N+]1(C)CCCC1.O=S(=O)([N-]S(=O)(=O)C(F)(F)F)C(F)(F)F: the activity coefficient runs as follows: (322.9 K) 1.78 ± 0.19; (333 K) 1.85 ± 0.19; (343.1 K) 1.86 ± 0.19.
With `Cc1ccccc1C` [1,2-dimethylbenzene] + CCCCCC[N+]1(C)CCCC1.O=S(=O)([N-]S(=O)(=O)C(F)(F)F)C(F)(F)F, the activity coefficient amounted to 1.17 ± 0.12 (322.9 K), 1.28 ± 0.13 (333 K) and 1.31 ± 0.13 (343.1 K).
For the compound `CCc1ccccc1` [ethylbenzene] + CCCCCC[N+]1(C)CCCC1.O=S(=O)([N-]S(=O)(=O)C(F)(F)F)C(F)(F)F, the activity coefficient runs as follows: (322.9 K) 1.38 ± 0.14; (333 K) 1.43 ± 0.15; (343.1 K) 1.46 ± 0.15.
Regarding `CCO` [ethanol] + CCCCCCCC[N+]1(C)CCCC1.O=S(=O)([N-]S(=O)(=O)C(F)(F)F)C(F)(F)F, the activity coefficient reads like this: (323 K) 1.33 ± 0.14; (333 K) 1.26 ± 0.13; (343.1 K) 0.98 ± 0.1.
With `C=CCCCC` [hex-1-ene] + CCCCCCCCCC[N+]1(C)CCCC1.O=S(=O)([N-]S(=O)(=O)C(F)(F)F)C(F)(F)F, the activity coefficient by setting is: (322.6 K) 2.68 ± 0.28; (332.5 K) 2.62 ± 0.28; (342.8 K) 2.57 ± 0.27.
Take `C1CCCCC1` [cyclohexane] + CCCCCCCC[N+]1(C)CCCC1.O=S(=O)([N-]S(=O)(=O)C(F)(F)F)C(F)(F)F: the activity coefficient by setting is: (323 K) 3.45 ± 0.36; (333 K) 3.31 ± 0.35; (343.1 K) 3.06 ± 0.32.
For `CCCCCCCCC` [nonane] + CCCCCC[N+]1(C)CCCC1.O=S(=O)([N-]S(=O)(=O)C(F)(F)F)C(F)(F)F, the activity coefficient reads like this: (322.9 K) 21.1 ± 2.2; (333 K) 18.2 ± 1.9; (343.1 K) 18.5 ± 1.9.
For `c1ccsc1` [thiophene] + CCCCCC[N+]1(C)CCCC1.O=S(=O)([N-]S(=O)(=O)C(F)(F)F)C(F)(F)F the same measures were 0.7 ± 0.07, 0.71 ± 0.07 and 0.72 ± 0.08.
Take `CCCCCC` [hexane] + CCCCCC[N+]1(C)CCCC1.O=S(=O)([N-]S(=O)(=O)C(F)(F)F)C(F)(F)F: the activity coefficient is, setting by setting: (322.9 K) 7.74 ± 0.81; (333 K) 7.38 ± 0.78; (343.1 K) 7.11 ± 0.75.
For `c1ccsc1` [thiophene] + CCCCCCCC[N+]1(C)CCCC1.O=S(=O)([N-]S(=O)(=O)C(F)(F)F)C(F)(F)F, the activity coefficient runs as follows: (323 K) 0.57 ± 0.06; (333 K) 0.55 ± 0.06; (343.1 K) 0.53 ± 0.06.
In the case of `CC#N` [acetonitrile] + CCCCCC[N+]1(C)CCCC1.O=S(=O)([N-]S(=O)(=O)C(F)(F)F)C(F)(F)F, the activity coefficient came to 0.46 ± 0.05 (322.9 K), 0.46 ± 0.05 (333 K) and 0.48 ± 0.05 (343.1 K).
For the compound `CCCCCCC` [heptane] + CCCCCCCCCC[N+]1(C)CCCC1.O=S(=O)([N-]S(=O)(=O)C(F)(F)F)C(F)(F)F, the activity coefficient (322.6 K) worked out at 4.91 ± 0.52, the activity coefficient (332.5 K) turned out to be 4.75 ± 0.5 and the activity coefficient (342.8 K) is 4.62 ± 0.49.
On to `CCCO` [propan-1-ol] + CCCCCCCCCC[N+]1(C)CCCC1.O=S(=O)([N-]S(=O)(=O)C(F)(F)F)C(F)(F)F, for which the activity coefficient (322.6 K) was 1.62 ± 0.17, the activity coefficient (332.5 K) came to 1.47 ± 0.15 and the activity coefficient (342.8 K) was determined as 1.32 ± 0.14.
Regarding `Cc1ccccc1` [toluene] + CCCCCC[N+]1(C)CCCC1.O=S(=O)([N-]S(=O)(=O)C(F)(F)F)C(F)(F)F, the activity coefficient reads like this: (322.9 K) 1 ± 0.1; (333 K) 1.01 ± 0.1; (343.1 K) 1.04 ± 0.11.
Regarding `CCCCCCCCC` [nonane] + CCCCCCCC[N+]1(C)CCCC1.O=S(=O)([N-]S(=O)(=O)C(F)(F)F)C(F)(F)F, the activity coefficient (323 K) worked out at 11.3 ± 0.67, the activity coefficient (333 K) amounted to 10.7 ± 0.64 and the activity coefficient (343.1 K) was found to be 9.14 ± 0.55.
